Measured values reported in patent US5665764A, “Tricyclic inhibitors of matrix metalloproteinases” (Warner-Lambert Company, priority 1995, dated 1997).

Key:
[1] = test system: bovine nasal and pig articular cartilage; conditions: Andrews et al. 1992; Ellis et al. 1994; cited from earlier work
[2] = biological target: GCD (recombinant gelatinase A catalytic domain); test: Inhibition of thiopeptolide substrate conversion by GCD; format: biochemical; conditions: thiopeptolide substrate Ac-Pro-Leu-Gly-thioester-Leu-Leu-Gly-OEt
From the text: Matrix metalloproteinases share high sequence hemology and the catalytic domains of each of the MMPs can be identified by sequence alignment. The gene for the catalytic domain of stromelysin-1, SCD, was constructed by removing the propeptide and C-terminal domain (Ye Q.-Z., Johnson L. L, Hupe D. J., and Baragi V., "Purification and Characterization of the Human Stromelysin Catalytic Domain Expressed in Escherichia coli", Biochemistry,1992;31:11231-11235). The gelatinase A catalytic domain, GCD, was similarly constructed with the additional removal of the fibronectin-like insert which interrupts the catalytic domain (Ye Q.-Z., Johnson L. L., Yu A. E., and Hupe D., "Reconstructed 19 kDa Catalytic Domain of Gelatinase A is an Active Proteinase", Biochemistry, 1995;34:4702-4708). Both truncated proteins cleave synthetic peptide substrates and the natural substrates proteoglycan and gelatin in a manner similar to the full-length enzymes and can be used to identify matrix metalloproteinase inhibitors.
Experiments were carried out with both the full-length enzymes and the catalytic domains. […] IC50 values were determined using a thiopeptolide substrate, Ac-Pro-Leu-Gly-thioester-Leu-Leu-Gly-OEt (Ye Q.-Z., Johnson L. L., Hupe D. J., and Baragi V., "Purification and Characterization of the Human Stromelysin Catalytic Domain Expressed in Escherichia coli", Biochemistry,1992;31:11231-11235). […]

[3] = Plasma concentrations; format: in vivo
[4] = test system: Mycobacterium footpad edema; test: Mycobacterium footpad edema assay (MFE); format: in vivo, male Wistar rats; conditions: daily, third day, statistically significant
Description: The activity of Example 2 as a general inhibitor of inflammation was tested using the Mycobacterium footpad edema assay (MFE) in Wistar rats. Compound was administered daily by gavage at 2 mg/kg, 10 mg/kg, or 50 mg/kg.
Male outbred Wistar rats (110-125 g, Charles River Labs, Portage, Mich.) were used in this study. Rats were housed for a minimum of 1 week before use. Food and water were supplied ad libitum. Foot pad edema was induced following the method described by Martel R. R. and Klicius J., "Comparisons in rats of the anti-inflammatory and gastric irritant effects of etodolac with several clinically effective antiinflammatory drugs", Agents and Actions, 1982;12:295. Briefly, male Wistar rats were injected subcutaneously into the right hind footpad with 0.1 mL of 5 mg/mL suspension of killed and dried Mycobacterium butyricum (Difco, Detroit, Mich.) in liquid paraffin. Compound was suspended in 0.5% hydroxypropylmethylcellulose (HPMC) containing 0.2% Tween-80 and administered orally 1 hour before injection. Subsequent doses of the compound were given 24 and 48 hours after the Mycobacterium. Control animals were given vehicle alone. Swelling was assessed on the third day by subtracting the initial volume (determined immediately following the Mycobacterium injection) from the final volume of the treated paw. Paw volume was determined by mercury plethysmography. The percent inhibition of edema achieved in each compound-treated group was determined by comparison with swelling in the vehicle-treated group and the ID50 values were determined by regression analysis. Statistical significance between experimental groups was evaluated using a Student's t-test.

[5] = test system: experimental allergic encephalomyelitis (EAE); test: EAE Lewis rat acute model, Protocol 1 (daily oral dosing); format: in vivo, female Lewis rats
Description: (§1) The activity of Example 2 in suppressing the inflammatory disease associated with EAE was tested using the Lewis rat acute model. Female Lewis rats were purchased from Harlan Sprague-Dawley (Indianapolis, Ind.) and were used at 8 to 10 weeks of age. Active EAE was induced by injection of 0.05 mL emulsion of myelin basic protein (MBP) with complete Freund's adjuvant (CFA), containing 25 μg guinea pig MBP and 100 μg Mycobacterium butyricum (Difco Laboratories, Detroit, Mich.) into one hind footpad. Immunized rats were observed daily for clinical signs of EAE and scored as follows: 0, no symptoms; 1, loss of tail tonicity; 2, paresis; 3, hind limb paralysis, often accompanied by incontinence; and 4, death. Formalin-fixed brain slice sections were stained with hematoxylin-eosin and evaluated microscopically for perivascular and parenchymal infiltration. Compound was administered by gavage as a solution in sterile saline in a volume of 500 μL. The dose of 50 mg/kg typically required 7.5 mg of compound per rat. Several different protocols were used to define the efficacy and timing retirements for potency.
Protocol 1: Compound was administered daily at 50 mg/kg beginning on Day 0 and continuing through Day 14, with MBP in CFA administered on Day 0 also. […] The percentage of animals responding is also very high with 100% of treated animals-showing either a total inhibition of symptoms (80%) or reduction of symptoms (20%). N=5 for all groups.

[6] = test system: leukocyte migration across the blood-brain barrier; test: Histology of brain slices from EAE rats, Protocol 1; format: in vivo, Lewis rat; conditions: 50 mg/kg daily
Description: as §1

[7] = test system: experimental allergic encephalomyelitis (EAE); test: EAE Lewis rat acute model, Protocol 2 (alternate day dosing); format: in vivo, female Lewis rats; conditions: for Effect on EAE Rats (≥ Paresis/Total): CFA + MBP, PBS control 5/7
Description: as §1
Protocol 2: To determine whether less frequent dosing or dosing at lower levels was still effective at suppressing EAE, compound was administered at either 50 mg/kg or at 10 mg/kg on Day 0 and on alternate days through Day 14. […] Controls run in parallel included CFA only and MBP in CFA. N=4 for treatment groups. N=8 for controls.

[8] = test system: experimental allergic encephalomyelitis (EAE); conditions: dose dependent; Gijbels et al. 1994; cited from earlier work

In the case of “TIMP-1: natural endogenous inhibitors of MMPs (TIMPs)”, the “formation of collagen fragments” value [1] is given as “prevented the formation of collagen fragments”.
With `O=C(O)CCC(=NO)c1ccc2oc3ccccc3c2c1` [Example 2, 4-Dibenzofuran-2-yl-4-hydroximino-butyric acid] the IC50 [2] was 40 nM, the “Cmax and AUC(0-b 4) versus dose” value ([3]; 2, 10, 50 mg/kg) was “increase proportionately with dose” and the “bioavailability versus effective range in vitro” value ([3]; effective range of gelatinase A and stromelysin-1 inhibition in the in vitro assays) was “well in excess of the effective range of gelatinase A and stromelysin-1 inhibition”. For the same compound, the “% Inhibition of Swelling” value ([4]; 2 mg/kg oral) was 23%, the “% Inhibition of Swelling” value ([4]; 10 mg/kg oral) was 27% and the “% Inhibition of Swelling” value ([4]; 50 mg/kg oral) was 40%. For the same compound, the “effect on average scores for the treated group” value ([5]; 50 mg/kg daily, Day 0-14) was “substantially reduced the average scores”, the “treated animals showing either a total inhibition of symptoms or reduction of symptoms” value ([5]; 50 mg/kg daily, Day 0-14, N=5) was 100% and the “Day of Peak” value ([5]; CFA + MBP, 50 mg/kg daily oral from Day 0) was 12 days. The “Clinical Grade at Peak of Disease Expression” value ([5]; CFA + MBP, 50 mg/kg daily oral from Day 0, N=5, SD 1.22, PBS control 3.0) was 1.0, the “Effect on EAE Rats (≥ Paresis/Total)” value ([5]; CFA + MBP, 50 mg/kg daily oral from Day 0, PBS control 5/5) was 1/5 and the “Effect on EAE Rats (≥ Paresis/Total)” value ([5]; CFA without MBP, 50 mg/kg daily oral from Day 0) was 0/5. For the same compound, the “Clinical Grade at Peak of Disease Expression” value ([5]; CFA without MBP, 50 mg/kg daily oral from Day 0, N=5, SD 0) was 0, the CNS inflammation [6] was “little CNS inflammation” and the cuff formation [6] was “no cuff formation”. The “leukocyte migration across the blood-brain barrier” value [6] was “completely prevented”, the “Effect on EAE Rats (≥ Paresis/Total)” value ([7]; 10 mg/kg alternate days) was 0/4 and the “Effect on EAE Rats (≥ Paresis/Total)” value ([7]; 50 mg/kg alternate days) was 0/4. The “decrease in disease severity, significance” value ([7]; Day 15, p≤0.01, 10 or 50 mg/kg alternate days) was “highly significant”.
For `CNC(=O)[C@H](Cc1c[nH]c2ccccc12)NC(=O)[C@@H](CC(=O)NO)CC(C)C` [GM6001], the “clinical expression/development of EAE” value [8] is listed as “suppressed the development or reversed the clinical expression”.
